The values that follow come from publication PMC7824787, “Design, Synthesis and In Vitro Investigation of Novel Basic Celastrol Carboxamides as Bio-Inspired Leishmanicidal Agents Endowed with Inhibitory Activity against Leishmania Hsp90” (Biomolecules, 2021).

Each structure is given as a SMILES string. Where two headings read alike, the source gives them in different places. Bounds are passed on as bounds.

The target in one assay is LbHsp90 (Leishmania braziliensis, UniProt A4HL70). The experiment in a line: LbHsp90 ATPase kinetics (NADH-coupled enzymatic cascade). The format is biochemical. How it is done: The reaction was initiated by the addition of ATP (1 mM) and absorbance changes at 346 nm were monitored for 30 min at 30 °C.
Native LbHsp90 kinetics was measured as described but in the absence of DMSO. Two control experiments were run as follows: • (1) Efficiency of the enzymatic cascade by the used compounds: HEPES buffer (20 mM, pH 7.5) containing KCl (100 mM), MgCl2 (1 mM), ADP (1 mM), NADH (0.18 mM), L-lactate dehydrogenase (4 U mL^−1), phosphoenolpyruvate (1 mM), pyruvate kinase (2.5 U mL^−1); • (2) Interference of the tested compound(s) with the enzymatic cascade: HEPES buffer (20 mM, pH 7.5) containing KCl (100 mM), MgCl2 (1 mM), ADP (1 mM), NADH (0.18 mM), L-lactate dehydrogenase (4 U mL^−1), phosphoenolpyruvate (1 mM), pyruvate kinase (2.5 U mL^−1) and 50 μM compound.
Accordingly, an in vitro assay developed for the evaluation of non-competitive allosteric modulators, which exploits ATPase kinetics data, was used. Briefly, the decrease in absorbance deriving from the continuous oxidation of NADH to NAD^+ produced by a multi-enzymatic cascade triggered by LbHp90-catalyzed ATP hydrolysis is followed spectrophotometrically over the course of 15 min (for details see Appendix B). All the experiments were normalized using the native ATPase activity of LbHsp90 measured in the presence of DMSO, the co-solvent selected for compounds solubilization.
Figure A1 Enzymatic cascade reactions to spectroscopically evaluate L. Hsp90 ATPase kinetics. The ADP produced by ATP hydrolysis during the chaperone cycle reacts with PEP (phosphoenolpyruvate) to form pyruvate in a reaction catalyzed by the enzyme pyruvate kinase (PK), whereby ATP is regenerated. Pyruvate then continues the cascade process and is reduced to lactic acid by action of lactate dehydrogenase (LDH), whereby NADH is oxidized to NAD^+.
LbHsp90 inhibition (%) = (1 − k/knative) * 100 k = ΔAbs/min = extrapolated apparent kinetic constant (Abs/min)

For assay [1], the system named is L. infantum promastigotes. The experiment in a line: Morphological differentiation of Leishmania promastigotes. The format is cell-based, Leishmania infantum. Conditions: 50 ng/mL, 23 °C, 48 h (Figure 6). How it is done:
L. infantum promastigotes were diluted in complete medium to 4 × 10^7 parasites/mL and 250 µL of the suspension were seeded into the 24 wells plates and incubated at 23 °C in the presence of geldanamycin, CE or compound 2 at the final concentration of 50 ng/mL. Cultures without drugs incubated at 23 °C or at 37 °C were used as negative and positive control, respectively. After 24 or 48 h of incubation, parasite morphology was evaluated by optical microscopy at 100× (Eclipse Ti Series, Nikon, Minato, Tokyo, Japan) on Giemsa stained smears (a mixture of eosin, methylene blue and Azure-B diluted 1:10). The percent of round promastigotes in treated and non-treated cells was determined. Images were taken at the same magnification by using a digital camera (Nikon Digital Sight). About 500 promastigotes were counted in 4 random fields.
The compounds were incubated (23 °C, physiological pH) with L. infantum promastigotes at a sub-IC50 concentration of 50 ng/mL. […] After 24 h and 48 h the presence of round, amastigote-like cells, was monitored (Figure 6). A negative and positive control experiment (NC and PC, Figure 6a,b) were also conducted growing the promastigotes at 23 °C and 37 °C, respectively.

Assay [2] relates to L. infantum promastigotes. The experiment in a line: Antileishmanial activity on L. infantum promastigotes (MTT). It counts as cell-based. To be noted: Leishmania infantum, 72 h, 23 °C, MTT, read-out: Leishmania Promastigotes IC50, L. infantum. How it is done: Promastigote stage of L. infantum (MHOM/TN/80/IPT1, kindly provided by Dr. M. Gramiccia and Dr. T. Di Muccio, ISS, Roma) and L. tropica (MHOM/SY/2012/ISS3130) were cultured in RPMI 1640 medium (EuroClone) supplemented with 15% heat-inactivated fetal calf serum (EuroClone, Milan, Italy), 20 mM HEPES, and 2 mM L-glutamine at 23 °C. The MTT (3-[4.5-dimethylthiazol-2-yl]-2.5-diphenyltetrazolium bromide) method was used to estimate the 50% inhibitory concentration (IC50), with some modifications. Compounds were dissolved in DMSO and then diluted with medium to achieve the required concentrations. Test compounds were placed in 96 wells round bottom microplates and seven serial dilutions made. Amphotericin B was used as the reference antileishmanial drug. Parasites were diluted in complete medium to 5 × 10^6 parasites/mL and 100 μL of the suspension was seeded into the plates and incubated at 23 °C for 72 h. Then 20 μL of MTT solution (5 mg/mL) was added into each well, after 3 h the plates were centrifuged, the supernatants discarded and the resulting pellets dissolved in 100 μL of lysing buffer consisting of 20% (w/v) of a solution of SDS (Sigma), 40% of N,N-dimethylformamide (Merck) in H2O. The absorbance of the obtained solutions was measured at a wavelength of 550 nm with a reference at 650 nm with a microplate spectrophotometer (Synergy 4-Biotek, Milan, Italy) and analyzed with the Gen5® software for data processing.
The results are expressed as IC50, the dose of compound that is necessary to inhibit cell growth by 50%; each IC50 value is the mean ± standard deviation of at least three separate experiments performed in duplicate.

Sequence of LbHsp90 (A4HL70 entry or part of it): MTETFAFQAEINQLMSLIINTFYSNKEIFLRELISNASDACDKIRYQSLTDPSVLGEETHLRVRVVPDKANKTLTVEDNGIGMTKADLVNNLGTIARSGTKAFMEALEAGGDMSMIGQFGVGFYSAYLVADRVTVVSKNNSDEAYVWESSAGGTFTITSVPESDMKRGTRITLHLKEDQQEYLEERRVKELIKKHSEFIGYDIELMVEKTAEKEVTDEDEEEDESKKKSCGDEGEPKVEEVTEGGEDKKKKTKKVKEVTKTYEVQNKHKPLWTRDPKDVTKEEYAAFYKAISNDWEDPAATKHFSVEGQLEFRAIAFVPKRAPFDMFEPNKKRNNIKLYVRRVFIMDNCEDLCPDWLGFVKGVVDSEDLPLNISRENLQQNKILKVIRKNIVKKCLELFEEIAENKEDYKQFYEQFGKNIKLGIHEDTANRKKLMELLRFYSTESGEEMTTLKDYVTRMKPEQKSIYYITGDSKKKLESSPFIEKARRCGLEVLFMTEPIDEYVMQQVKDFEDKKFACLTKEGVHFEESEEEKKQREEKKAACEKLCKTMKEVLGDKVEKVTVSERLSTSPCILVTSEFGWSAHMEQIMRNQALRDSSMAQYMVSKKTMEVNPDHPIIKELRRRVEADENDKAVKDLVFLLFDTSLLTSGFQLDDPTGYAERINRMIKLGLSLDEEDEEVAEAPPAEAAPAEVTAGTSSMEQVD

Regarding `COC1=C2C[C@@H](C)C[C@H](OC)[C@H](O)[C@@H](C)/C=C(\C)[C@H](OC(N)=O)[C@@H](OC)/C=C\C=C(/C)C(=O)NC(=CC1=O)C2=O` [GA, geldanamycin], on LbHsp90 (GA dose-response, 10 μM), the inhibition at 10 µM stood at 0.1 ± 0.02%. The inhibition at 15 µM at LbHsp90 (GA dose-response, 15 μM) worked out at 0.2 ± 0.05%. Moreover, 20 µM produced 0.3 ± 0.08% inhibition against LbHsp90 (GA dose-response, 20 μM). The inhibition at 50 µM at LbHsp90 (GA dose-response, 50 μM, read-out: LbHsp90 Inhibition (%)) was 0.7 ± 0.04%; at LbHsp90 (read-out: LbHsp90 Inhibition (%), compound 50 μM, 3.5 μM LbHsp90, 1 mM ATP), under 0.05%. On LbHsp90 (GA dose-response, 100 μM), this molecule registered an inhibition at 100 µM of 6.5 ± 0.9%. The molecule also displayed an inhibition at 200 µM against LbHsp90 (GA dose-response, 200 μM) of 30.7 ± 1.2%. Besides, the inhibition at 400 µM against LbHsp90 (GA dose-response, 400 μM) was 52.3 ± 0.8%. At LbHsp90 (GA dose-response, 600 μM), this molecule showed an inhibition at 600 µM of 76.9 ± 3%. The inhibition at 800 µM at LbHsp90 (GA dose-response, 800 μM) was 90.5 ± 2.5%. At LbHsp90 (GA dose-response, 1000 μM (1 mM), 1 mM ATP), this molecule had an inhibition at 1000 µM of 99 ± 0.9%. The same molecule gave an inhibition at 1200 µM against LbHsp90 (GA dose-response, 1200 μM) of over 99%. Besides, the “round amastigote-like cells (morphological differentiation)” value in assay [1] is about 40%. Further, the IC50 in assay [2] was 140 ± 40 nM.

Broadly, the inhibition is the percentage by which the read-out fell short of the control. Usually IC50 stands for the concentration at which inhibition is half-maximal.
